According to ChEMBL document CHEMBL4706696, “3-Functionalised benzenesulphonamide based 1,3,4-oxadiazoles as selective carbonic anhydrase XIII inhibitors: Design, synthesis and biological evaluation” (Bioorg Med Chem Lett, 2021):

Key:
[1] = biological target: Carbonic anhydrase 9 (Homo sapiens, UniProt Q16790); test: Inhibition of recombinant human carbonic anhydrase 9 by stopped flow CO2 hydrase assay
[2] = biological target: Carbonic anhydrase 2 (Homo sapiens, UniProt P00918); test: Inhibition of recombinant human carbonic anhydrase 2 by stopped flow CO2 hydrase assay
[3] = biological target: Carbonic anhydrase 13 (Homo sapiens, UniProt Q8N1Q1); test: Inhibition of recombinant human carbonic anhydrase 13 by stopped flow CO2 hydrase assay
[4] = biological target: Carbonic anhydrase 1 (Homo sapiens, UniProt P00915); test: Inhibition of recombinant human carbonic anhydrase 1 by stopped flow CO2 hydrase assay
Carbonic anhydrase 1, sequence (P00915 whole entry): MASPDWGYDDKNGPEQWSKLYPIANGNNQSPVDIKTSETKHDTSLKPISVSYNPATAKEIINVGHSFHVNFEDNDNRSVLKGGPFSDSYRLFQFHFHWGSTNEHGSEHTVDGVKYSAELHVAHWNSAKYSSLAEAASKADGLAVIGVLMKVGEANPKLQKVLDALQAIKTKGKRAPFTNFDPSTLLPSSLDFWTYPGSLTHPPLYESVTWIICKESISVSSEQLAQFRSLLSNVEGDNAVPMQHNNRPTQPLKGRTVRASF

Carbonic anhydrase 13, sequence (Q8N1Q1 whole entry): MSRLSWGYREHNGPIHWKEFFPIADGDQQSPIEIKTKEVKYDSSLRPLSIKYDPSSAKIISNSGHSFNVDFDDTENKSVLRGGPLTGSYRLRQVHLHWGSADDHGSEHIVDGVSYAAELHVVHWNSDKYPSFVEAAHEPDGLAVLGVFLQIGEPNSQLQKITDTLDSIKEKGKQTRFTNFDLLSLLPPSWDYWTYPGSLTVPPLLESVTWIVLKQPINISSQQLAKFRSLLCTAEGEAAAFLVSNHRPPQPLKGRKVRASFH

SMILES | Ki [1] | Ki [2] | Ki [3] | Ki [4]
NS(=O)(=O)c1cccc(-c2nnc(-c3ccc(Cl)cc3)o2)c1 | 0.0545 µM | – | – | –
Cc1ccc(-c2nnc(-c3ccccc3)o2)cc1S(N)(=O)=O | > 10 µM | > 10 µM | > 10 µM | > 10 µM
COc1ccc(-c2nnc(-c3ccc(C)c(S(N)(=O)=O)c3)o2)c(OC)c1 | > 10 µM | > 10 µM | > 10 µM | > 10 µM
COc1ccc(-c2nnc(-c3ccccc3)o2)cc1S(N)(=O)=O | > 10 µM | > 10 µM | > 10 µM | > 10 µM
Cc1ccc(-c2nnc(-c3ccc(Cl)cc3Cl)o2)cc1S(N)(=O)=O | > 10 µM | > 10 µM | > 10 µM | > 10 µM
COc1cc(-c2nnc(-c3cccc(S(N)(=O)=O)c3)o2)cc(OC)c1OC | 0.0683 µM | – | – | –
COc1ccc(OC)c(-c2nnc(-c3cccc(S(N)(=O)=O)c3)o2)c1 | 0.0768 µM | – | – | –
Cc1ccc(-c2nnc(-c3ccc(C#N)cc3)o2)cc1S(N)(=O)=O | > 10 µM | > 10 µM | > 10 µM | > 10 µM
NS(=O)(=O)c1cccc(-c2nnc(-c3ccc(Cl)cc3Cl)o2)c1 | 0.0763 µM | – | – | –
N#Cc1ccc(-c2nnc(-c3cccc(S(N)(=O)=O)c3)o2)cc1 | 0.0763 µM | – | – | –
NS(=O)(=O)c1cccc(-c2nnc(-c3ccccc3)o2)c1 | 0.108 µM | – | – | –
COc1ccc(-c2nnc(-c3cccc([N+](=O)[O-])c3)o2)cc1S(N)(=O)=O | > 10 µM | > 10 µM | > 10 µM | > 10 µM
Cc1ccc(-c2nnc(-c3ccc(Cl)cc3)o2)cc1S(N)(=O)=O | > 10 µM | > 10 µM | > 10 µM | > 10 µM
NS(=O)(=O)c1cccc(-c2nnc(-c3cccc([N+](=O)[O-])c3)o2)c1 | 0.044 µM | – | – | –
Cc1ccc(-c2nnc(-c3cccc([N+](=O)[O-])c3)o2)cc1S(N)(=O)=O | > 10 µM | > 10 µM | > 10 µM | > 10 µM
NS(=O)(=O)c1cccc(-c2nnc(-c3ccc([N+](=O)[O-])cc3)o2)c1 | 0.0571 µM | – | – | –
NS(=O)(=O)c1cccc(-c2nnc(-c3cccs3)o2)c1 | 0.0853 µM | – | – | –
COc1ccc(-c2nnc(-c3ccc(OC)c(S(N)(=O)=O)c3)o2)c(OC)c1 | > 10 µM | > 10 µM | > 10 µM | > 10 µM
COc1ccc(-c2nnc(-c3cccc(S(N)(=O)=O)c3)o2)c(OC)c1 | 0.0822 µM | – | – | –
